Here are results for 2 compounds from patent publication US20050113579A1, “Naphthalimide synthesis including amonafide synthesis and pharmaceutical preparations thereof” (ChemGenex Therapeutics, Inc., priority 2002, published 2005).

The conditions of series [1]: free base; background statement; cited from earlier work.
The nature of series [2]: Titration with sodium hydroxide. Type of series: physicochemical. How it is done: 561 mg amonafide dihydrochloride (1.57 mmol) was dissolved in 10 mL water to yield a clear red solution with pH at 1.2. With constant stirring, 1N NaOH solution was added. Solution remained clear until pH greater than 6.7. As shown in the titration curve below, 3.3 mmol NaOH was used to neutralize amonafide dihydrochloride in the solution. The calculated mol ratio of amonafide to NaOH was 1:2. [drawing]

Series [3] can be described thus: Osmolality of the product. Type of series: physicochemical.
A further series is described as follows: physchem. In kind it is physicochemical. As for the experimental part: Precipitation occurs as pH increases above 6.5. Solubility is about 1 mg/mL at pH 9 and 0.05 mg/mL at pH 11.
Series [4] in a line: Solubility in water (general statements). In kind it is physicochemical. Particulars: general statement.

Structures can show the parent of a compound that is named as a salt.

Usually solubility stands for the dissolved amount per volume that the medium holds. Higher therefore signals a readily soluble substance.

Take `CN(C)CCN1C(=O)c2cccc3cc(N)cc(c23)C1=O` [Amonafide, 5-amino-2-[(dimethylamine)ethyl]-1H-benz[de-]isoquinoline-1,3-(2H)-dione]: the solubility in water result in series [1] is “very poorly soluble”.

As for `CN(C)CCN1C(=O)c2cccc3cc(N)cc(c23)C1=O` [amonafide dihydrochloride], the pH of solution in series [2] (561 mg (1.57 mmol) dissolved in 10 mL water, clear red solution) amounted to 1.2. For the same compound, in series [2] (1N NaOH added with constant stirring), the “pH until which solution remained clear” value was “greater than 6.7”. In addition, the osmolality entry in series [3] is given as “equivalent to 0.9% sodium chloride solution”. The “pH above which precipitation occurs” value in the series “physchem” (as pH increases) is listed as “above 6.5”. Moreover, the solubility in the series “physchem” (pH 1, water) was over 250000 µg/mL; in “physchem” (pH 9, aqueous buffer), about 1000 µg/mL; in “physchem” (pH 11, aqueous buffer) it was 50 µg/mL. Also, in series [4], the “solubility in water compared to monohydrochloride salt” value is reported as “more soluble in water”.
